The test system of one series is COLO 205. Nature of the series: Cytotoxicity against COLO205 cells. The class given is functional, cell-based. The settings on record: Homo sapiens.
Series [1] in a line: Antiproliferative activity against KBV1cells. It counts as functional, cell-based. The settings on record: Homo sapiens, KB-V1.
Series [2] is described as follows: Antiproliferative activity against KB8.5 cells. The class given is functional, cell-based. The settings on record: Homo sapiens.
Series [3] has as its system KB. The experiment in a line: Ratio of IC50 for KB8.5 cells to IC50 for KB cells. It counts as functional, Homo sapiens.
Series [4] can be described thus: Solubility in water at pH 7.4. It counts as physicochemical.
Series [5] deals with T1, Tubulin (Homo sapiens) (UniProt P68371+Q9H4B7+P0DPH7+P68366+Q13509+Q71U36+P04350+Q3ZCM7+P07437+P68363+Q9BQE3+Q6PEY2+Q13885+Q9BVA1+Q9BUF5). Nature of the series: Stimulation of tubulin polymerization. It counts as protein-complex assay.
Series [6] addresses T1, Tubulin (Homo sapiens). Nature of the series: Stimulation of MAP-rich tubulin polymerization. It counts as protein-complex assay.
Series [7] in a line: Ratio of IC50 for KB V1 cells to IC50 for KB cells.
Series [8] in a line: Stability in nude mouse microsomes after 30 mins. The class given is ADME, Microsome. To be noted: read-out: Stability.
In series [9] the test system is KB. Nature of the series: Antiproliferative activity against KB cells. The class given is functional, cell-based. To be noted: Homo sapiens.

The source made the active and inactive calls. No cut-off for these calls is given here. A value given as a limit tells only on which side of the number the result lay.

For orientation: IC50 means the point on the concentration scale where inhibition reaches its midpoint. For `CCN(C#N)c1nc(Cl)c(-c2c(F)cc(F)cc2F)c(NCC(F)(F)F)n1`, the IC50 with COLO 205 came out at 304 nM.
Same read-out and setting: the value for `CN(C)CCOc1cc(F)c(-c2c(Cl)nc(N(C)C#N)nc2NCC(F)(F)F)c(F)c1` was 532 nM.
In [1], `CC(=O)O[C@H]1C(=O)[C@@]2(C)[C@H]([C@H](OC(=O)c3ccccc3)[C@]3(O)C[C@H](OC(=O)[C@H](O)[C@@H](NC(=O)c4ccccc4)c4ccccc4)C(C)=C1C3(C)C)[C@]1(OC(C)=O)CO[C@@H]1C[C@@H]2O` [PACLITAXEL] showed an IC50 of 2010 nM.
Regarding `C=CCN(C#N)c1nc(Cl)c(-c2c(F)cc(F)cc2F)c(NCC(F)(F)F)n1`, the IC50 with COLO 205 came out at 477 nM. In other words, the sub-micromolar range.
`CN(C)CCCOc1cc(F)c(-c2c(Cl)nc(N(C)C#N)nc2NCC(F)(F)F)c(F)c1`: in the series on COLO 205, the IC50 came to 52 nM.
In turn, `CN(C#N)c1nc(Cl)c(-c2c(F)cc(F)cc2F)c(NCC(F)(F)F)n1` yielded an IC50 with COLO 205 of 214 nM.
For the molecule `CNCCCOc1cc(F)c(-c2c(Cl)nc3ncnn3c2N[C@@H](C)C(F)(F)F)c(F)c1.Cl`, the IC50 in series [2] worked out at 67 nM. Further, the “Ratio IC50” value in the series with KB [3] is on record as 2.9.
Usually solubility stands for the dissolved amount per volume that the medium holds. With `C[C@H](Nc1nc(N(C)C#N)nc(Cl)c1-c1c(F)cc(OCCCN(C)C)cc1F)C(F)(F)F`, the solubility in [4] is > 100 µg/mL. The IC50 in [2] turned out to be 59 nM; with COLO 205, 36 nM; in [1], 82 nM; in the series with KB [9], 24 nM. Moreover, the “Ratio IC50” value is 2.5 in the series on KB [3] and 3.5 in series [7]. In addition, the outcome at Tubulin (Homo sapiens) [5] and on Tubulin (Homo sapiens) [6] was Active. In series [8], the remaining at 0.5 h is 92%.
`CN(C)CCCCOc1cc(F)c(-c2c(Cl)nc(N(C)C#N)nc2NCC(F)(F)F)c(F)c1`: the IC50 with COLO 205 is 229 nM.
Regarding `CC[C@]1(O)C[C@H]2CN(CCc3c([nH]c4ccccc34)[C@@](C(=O)OC)(c3cc4c(cc3OC)N(C=O)[C@H]3[C@@](O)(C(=O)OC)[C@H](OC(C)=O)[C@]5(CC)C=CCN6CC[C@]43[C@@H]65)C2)C1` [VINCRISTINE], the half-maximal inhibitory concentration (IC50) came to 58 nM in series [2] and 2040 nM in [1]. Moreover, the “Ratio IC50” value is given as 26 with KB [3] and 925 in series [7].

Values taken from ChEMBL document CHEMBL1144649, “2-cyanoaminopyrimidines as a class of antitumor agents that promote tubulin polymerization” (Bioorg Med Chem Lett, 2007).
